This is an account of results in PubChem BioAssay (NCI).

What all share (assay): NCI tumour cell line growth inhibition, 48 h
Experiment [1] concerns ACHN renal.
For experiment [2], the system named is COLO 205 colon.
Experiment [3] deals with HCT-15 colon.
In experiment [4] the test system is HT29 colon.
In experiment [5] the test system is MOLT-4 leukemia.
Experiment [6] relates to NCI-H23 lung.
Experiment [7] has as its system OVCAR-3 ovarian.
Experiment [8] has as its system SF-268 CNS.
Experiment [9] has as its system SK-MEL-2 melanoma.
The subject of experiment [10] is SK-OV-3 ovarian.

Where “and” joins values, the source holds several entries; their conditions need not be identical. Identical values can stand only once.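 Cultured in 96-well plates, cells were exposed to test compound for 48 hours across five concentrations. GI50 is the concentration that inhibits growth by half. TGI marks complete inhibition of growth.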

On to `CCOc1ccc(NC(=O)CCc2nnc(SC)o2)cc1`, for which the TGI in experiment [1], in [2], in experiment [3], in experiment [4], in [5] and in experiment [6] was over 100 µM each time. For the same compound, the TGI in experiment [7], in [8], in experiment [9] and in experiment [10] was over 100 µM each time.

Regarding `Cc1cc2c(c(C(N)=O)c1C)-c1cc(Cl)cc(Cl)c1C2=O`, the TGI in experiment [1], in experiment [2], in experiment [3], in experiment [4], in experiment [5] and in experiment [6] was over 100 µM in each case. Moreover, the TGI in experiment [7], in experiment [8], in experiment [9] and in experiment [10] was over 100 µM each time.

`Cc1cccc(NC(=O)/C(=N\N)C(c2cnc3ccc([N+](=O)[O-])cc3n2)[N+](=O)[O-])c1C` (centres undefined): the TGI in experiment [1], in experiment [2], in experiment [3], in experiment [4], in experiment [5] and in [6] was over 100 µM in each case. The TGI in experiment [7], in experiment [8], in experiment [9] and in experiment [10] was over 100 µM in each case.

`COc1ccc(-c2[nH]c3ccccc3c2CCNS(=O)(=O)c2ccc(C)cc2)cc1`: the TGI is over 10 µM in experiment [1]; 4.03 µM in experiment [2]; over 10 µM in experiment [3]; over 10 µM in [4]; over 10 µM in [5]; over 10 µM in experiment [6]. Further, the TGI in [7], in experiment [8], in experiment [9] and in experiment [10] was over 10 µM throughout.

On to `COc1cc(/C=C/c2ccc3c(Br)cc(Br)c(O)c3n2)ccc1O`, for which the GI50 in experiment [1] is 0.891 µM; in experiment [2], 5.01 µM; in experiment [3] it was 0.424 µM; in experiment [4], 3.86 µM; in experiment [5], 0.606 µM; in [6] it was 1.99 µM. For the same compound, the GI50 is 1.66 µM in experiment [7], 1.31 µM in experiment [8], 6.11 µM in experiment [9] and 6.62 µM in experiment [10]. In addition, the TGI in [1] stood at 12.1 µM; in experiment [2], 17.2 µM; in experiment [3], 15.3 µM; in experiment [4] it was 12.8 µM; in experiment [5], 7.04 µM; in experiment [6], 16.4 µM. The TGI was 9.12 µM in experiment [7], 14.8 µM in [8], 22.2 µM in experiment [9] and 31.8 µM in [10].

As for `CN=C1OC2(c3ccccc3)C3=C(OC(=NC)N2C)C(=O)OC3(c2ccccc2)N1C` (centres undefined), the TGI in [1], in experiment [2], in [3], in experiment [4], in [5] and in experiment [6] was over 100 µM each time. Also, the TGI in experiment [7], in experiment [8], in experiment [9] and in [10] was over 100 µM each time.

With `FC(F)(F)c1cccc(-c2nn3ncccc3c2-c2ccnc(Nc3ccc4c(c3)OCCO4)n2)c1`, the GI50 in experiment [1] was 6.42 µM; in [2], 14.1 µM; in experiment [3] it was 6.59 µM; in experiment [4], 7.32 µM; in experiment [5], 11.8 µM; in experiment [6] it was 14.8 µM. The GI50 is 13.7 µM in experiment [7], 19.4 µM in experiment [8], over 25 µM in [9] and 8.99 µM in [10]. Moreover, the TGI in experiment [1], in experiment [2], in [3], in experiment [4], in [5] and in [6] was over 25 µM throughout. Besides, the TGI in experiment [7], in [8], in experiment [9] and in [10] was over 25 µM throughout.

As for `CSc1ccc(C2=NN(C(C)=O)C(c3ccc(-c4ccc(Cl)cc4)o3)C2)cc1` (centres undefined), the GI50 in [1] was 37.1 µM; in [2] it was 36.2 µM; in experiment [3], 23.2 µM; in experiment [4], 30.4 µM; in [5], 16.4 µM; in [6] it was 86.1 µM. Further, the GI50 is 21 µM in [7], 21.7 µM in [8], 28.9 µM in experiment [9] and 28.9 µM in experiment [10]. The TGI in [1] is over 100 µM; in [2] it was over 100 µM; in experiment [3] it was over 100 µM; in experiment [4] it was over 100 µM; in [5], 97.3 µM; in experiment [6] it was over 100 µM. Also, the TGI in experiment [7] is 80.9 µM; in [8], 71.4 µM; in [9] it was over 100 µM; in experiment [10], over 100 µM.

On to `COc1ccc(/C=C(/C)[N+](=O)[O-])cc1OC`, for which the GI50 in [1] was 2.18 µM and 1.46 µM; in experiment [2], 1.78 µM and 1.5 µM; in [3], 2.08 µM and 1.02 µM; in experiment [4] it was 2.62 µM and 1.41 µM; in experiment [5], 2.94 µM and 3.32 µM; in experiment [6] it was 1.9 µM and 1.98 µM. Besides, the GI50 in [7] was 1.89 µM and 1.79 µM; in experiment [8], 2.82 µM and 3.61 µM; in experiment [9] it was 2.39 µM and 1.81 µM; in [10], 14.3 µM and 16.7 µM. Further, the TGI in experiment [1] was 4.19 µM and 2.82 µM; in experiment [2], 3.28 µM and 3.05 µM; in [3], 5.47 µM and 2.67 µM; in experiment [4] it was 5.92 µM and 4.07 µM; in experiment [6] it was 4.24 µM and 4.6 µM; in [7] it was 3.35 µM and 3.44 µM. Also, the TGI is 7.13 µM and 13.2 µM in experiment [8]; 4.9 µM and 4 µM in experiment [9]; 27.4 µM and 30.4 µM in experiment [10].

Regarding `CNNC(=NS(=O)(=O)c1cc(C#N)c(NNC)cc1S)NNC`, the TGI in experiment [1], in [2], in experiment [3], in [4], in experiment [5] and in experiment [6] was over 10 µM throughout. For the same compound, the TGI in [7], in experiment [8], in experiment [9] and in experiment [10] was over 10 µM each time.

With `N#CCN1C(=O)c2cc([N+](=O)[O-])cc3cc([N+](=O)[O-])cc(c23)C1=O`, the TGI in experiment [1] was 26.3 µM; in experiment [2], 36.6 µM; in [3], 20.3 µM; in experiment [4], over 69.2 µM; in experiment [5], over 22.8 µM; in [6], 32.9 µM. Moreover, the TGI in experiment [7] is 27.1 µM; in experiment [8], 48.8 µM; in experiment [9], 14.1 µM; in experiment [10], over 100 µM.

In the case of `O=C1C(OCCOc2ccccc2)=C(OCCOc2ccccc2)C(=O)c2ccccc21`, the GI50 in experiment [1] is 5.09 µM; in experiment [2], 41.9 µM; in experiment [3] it was 3.14 µM; in experiment [4], 9.95 µM; in [5], over 100 µM; in experiment [6] it was 1.82 µM. Further, the GI50 in experiment [7] was 6.5 µM; in experiment [8], 6.31 µM; in experiment [9], 18.6 µM; in experiment [10], 23.1 µM. In addition, the TGI in [1] was over 100 µM; in [2] it was over 100 µM; in [3], over 100 µM; in experiment [4], over 100 µM; in [5], over 100 µM; in experiment [6] it was 24.3 µM. Also, the TGI in experiment [7], in experiment [8], in [9] and in experiment [10] was over 100 µM each time.

Turning to `c1cc(-c2cn3c(n2)SCC3)ccn1`, the TGI was over 100 µM in experiment [1]; over 100 µM in [2]; over 59 µM in experiment [3]; over 100 µM in [4]; over 100 µM in experiment [5]; over 100 µM in experiment [6]. The TGI in experiment [7], in [8], in [9] and in experiment [10] was over 100 µM each time.

Consider `C/C(=N\O)c1cccc(Nc2cc(-n3ccnc3)c3ccccc3n2)c1`, for which the GI50 in [1] was 7.31 µM; in [2], 13 µM; in experiment [3], 9.26 µM; in experiment [4] it was 14.7 µM; in experiment [5], 12.6 µM; in experiment [6], 16.7 µM. Moreover, the GI50 is 14.7 µM in [7], over 100 µM in experiment [8], 16.4 µM in experiment [9] and 20.9 µM in experiment [10]. Further, the TGI in experiment [1] turned out to be 19.4 µM; in experiment [2], 29.1 µM; in experiment [3] it was 22.6 µM; in [4] it was 49.4 µM; in experiment [5], 37.5 µM; in [6], 33.6 µM. Further, the TGI was 39.6 µM in [7], over 100 µM in experiment [8], 31.6 µM in experiment [9] and 60.5 µM in experiment [10].

In the case of `Nc1n[nH]c2ccc([C@@H]3Nc4cc5c(cc4[C@H]4C6CCC(C6)[C@@H]34)C(=O)NC5)cc12` (some centres undefined), the GI50 in [1] is 0.726 µM; in experiment [2], 0.326 µM; in experiment [3], 0.601 µM; in [4], 0.393 µM; in experiment [5] it was 0.415 µM; in experiment [6], 0.431 µM. The GI50 in experiment [7] is 0.305 µM; in experiment [8], 1.04 µM; in experiment [9], 15 µM; in experiment [10], 0.844 µM. Further, the TGI in experiment [1] is over 100 µM; in experiment [2] it was 1.7 µM; in experiment [3], over 100 µM; in experiment [4], over 100 µM; in experiment [5], over 100 µM; in experiment [6], over 100 µM. Also, the TGI in experiment [7] was 1.19 µM; in experiment [8], over 100 µM; in experiment [9] it was over 100 µM; in [10], over 100 µM.

Regarding `CCOC(=O)/C(I)=C/c1cc(OC)c(OC)c(OC)c1`, the TGI in [1] is 28.2 µM; in experiment [2] it was 18.2 µM; in experiment [3], 17.1 µM; in experiment [4], 15.1 µM; in [5], 40.3 µM; in [6], 14.1 µM. For the same compound, the TGI was 14.1 µM in experiment [7], 6.73 µM in experiment [8], over 100 µM in [9] and over 100 µM in experiment [10].

As for `COc1ccc(-c2cc(=O)c3c(O)cccc3o2)c(OC)c1OC`, the TGI in experiment [1], in experiment [2], in experiment [3], in experiment [4], in experiment [5] and in experiment [6] was over 100 µM each time. Besides, the TGI in experiment [7], in [8], in experiment [9] and in [10] was over 100 µM in each case.

In the case of `O=C(O)CCNS(=O)(=O)c1ccc([N+](=O)[O-])cc1`, the TGI in experiment [1], in experiment [2], in experiment [3], in experiment [4], in [5] and in [6] was over 100 µM throughout. Moreover, the TGI in experiment [7], in [8], in experiment [9] and in [10] was over 100 µM in each case.

`Cc1ccccc1-n1c(N)c(-c2nc3ccccc3[nH]2)sc1=S`: the TGI in [1] is over 100 µM; in experiment [2], 49 µM; in experiment [3], 71.7 µM; in [4], 36.9 µM; in experiment [5], 70.6 µM; in experiment [6], 45.4 µM. In addition, the TGI in [7] is 41.1 µM; in [8], 69.6 µM; in experiment [9] it was 48.3 µM; in experiment [10], 72.6 µM.

For the compound `COc1cc(C2(C)SCCCS2)cc(OC)c1OC`, the TGI in [1], in experiment [2], in [3], in experiment [4], in experiment [5] and in experiment [6] was over 100 µM each time. The TGI in [7], in experiment [8], in experiment [9] and in experiment [10] was over 100 µM throughout.
